Assay results published in patent US10709676B2 (GENEHEAL BIOTECHNOLOGY CO., LTD., priority 2016, dated 2020).

Target: PAICS (Homo sapiens, UniProt P22234)
Conditions: can reach; biochemical enzyme activity and cell biology experiments

Sequence of PAICS (P22234 whole entry): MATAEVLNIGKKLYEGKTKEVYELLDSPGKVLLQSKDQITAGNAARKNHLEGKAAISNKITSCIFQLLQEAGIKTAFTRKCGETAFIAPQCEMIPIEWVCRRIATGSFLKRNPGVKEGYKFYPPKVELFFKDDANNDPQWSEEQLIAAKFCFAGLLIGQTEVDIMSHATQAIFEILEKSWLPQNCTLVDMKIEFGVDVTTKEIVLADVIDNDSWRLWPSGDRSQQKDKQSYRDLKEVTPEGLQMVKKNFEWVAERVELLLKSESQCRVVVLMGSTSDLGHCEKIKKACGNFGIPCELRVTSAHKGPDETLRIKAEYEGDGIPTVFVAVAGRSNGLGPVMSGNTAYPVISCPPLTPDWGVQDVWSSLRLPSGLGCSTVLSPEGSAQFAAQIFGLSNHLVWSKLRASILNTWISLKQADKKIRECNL

Structure (SMILES): NCCCNCCCCNCCCN [spermine, Spermine]
- inhibition ratio against SAICAR accumulation: 71.1%
